Earlier results in patent US20150361500A1, “BIOMARKERS FOR DIAGNOSIS AND TREATMENT OF ACNE VULGARIS” (DermTech International, priority 2013, published 2015).

System: acne

O=C(OOC(=O)c1ccccc1)c1ccccc1 [Benzoyl peroxide]
tolerability (2.5% concentration compared with 5 and 10%): usually better tolerated | effectiveness in acne treatment (5 and 10% concentrations compared with 2.5%): not significantly more effective | skin reactions (gel or cream applied to affected areas): commonly causes initial dryness and sometimes irritation
